Laboratory results from patent US20160378912A1, “STRUCTURE-BASED MODELING AND TARGET-SELECTIVITY PREDICTION” (EPIGENETX, LLC, priority 2013, published 2016).

Assays:
[1] = test system: HDAC isoforms; test: HDAC inhibition profiled over several HDAC isoforms (experimental); type: biochemical, human
[2] = test system: HDLP; settings: CTS; cited from earlier work
[3] = target: HIV-RT L100I (Human immunodeficiency virus type 1 group M subtype B, UniProt P04585, L687I); settings: Rotili et al. 2012; cited from earlier work
[4] = target: HIV-RT V106A (Human immunodeficiency virus type 1 group M subtype B, UniProt P04585, V693A); settings: Rotili et al. 2012; cited from earlier work
[5] = target: HIV-RT WT (Human immunodeficiency virus type 1 group M subtype B, UniProt P04585); settings: Rotili et al. 2012; cited from earlier work
[6] = target: HIV-RT K103N (Human immunodeficiency virus type 1 group M subtype B, UniProt P04585, K690N); settings: Rotili et al. 2012; cited from earlier work
[7] = target: HIV-RT Y188L (Human immunodeficiency virus type 1 group M subtype B, UniProt P04585, Y775L); settings: Rotili et al. 2012; cited from earlier work
[8] = target: HIV-RT Y181I (Human immunodeficiency virus type 1 group M subtype B, UniProt P04585, Y768I); settings: Rotili et al. 2012; cited from earlier work
[9] = target: HDAC4 (Homo sapiens, UniProt P56524); settings: MTS inhibitors; cited from earlier work
[10] = target: T1, HDAC7 (Homo sapiens, UniProt Q8WUI4); settings: MTS inhibitors; cited from earlier work
T1 sequence (Q8WUI4 1-952): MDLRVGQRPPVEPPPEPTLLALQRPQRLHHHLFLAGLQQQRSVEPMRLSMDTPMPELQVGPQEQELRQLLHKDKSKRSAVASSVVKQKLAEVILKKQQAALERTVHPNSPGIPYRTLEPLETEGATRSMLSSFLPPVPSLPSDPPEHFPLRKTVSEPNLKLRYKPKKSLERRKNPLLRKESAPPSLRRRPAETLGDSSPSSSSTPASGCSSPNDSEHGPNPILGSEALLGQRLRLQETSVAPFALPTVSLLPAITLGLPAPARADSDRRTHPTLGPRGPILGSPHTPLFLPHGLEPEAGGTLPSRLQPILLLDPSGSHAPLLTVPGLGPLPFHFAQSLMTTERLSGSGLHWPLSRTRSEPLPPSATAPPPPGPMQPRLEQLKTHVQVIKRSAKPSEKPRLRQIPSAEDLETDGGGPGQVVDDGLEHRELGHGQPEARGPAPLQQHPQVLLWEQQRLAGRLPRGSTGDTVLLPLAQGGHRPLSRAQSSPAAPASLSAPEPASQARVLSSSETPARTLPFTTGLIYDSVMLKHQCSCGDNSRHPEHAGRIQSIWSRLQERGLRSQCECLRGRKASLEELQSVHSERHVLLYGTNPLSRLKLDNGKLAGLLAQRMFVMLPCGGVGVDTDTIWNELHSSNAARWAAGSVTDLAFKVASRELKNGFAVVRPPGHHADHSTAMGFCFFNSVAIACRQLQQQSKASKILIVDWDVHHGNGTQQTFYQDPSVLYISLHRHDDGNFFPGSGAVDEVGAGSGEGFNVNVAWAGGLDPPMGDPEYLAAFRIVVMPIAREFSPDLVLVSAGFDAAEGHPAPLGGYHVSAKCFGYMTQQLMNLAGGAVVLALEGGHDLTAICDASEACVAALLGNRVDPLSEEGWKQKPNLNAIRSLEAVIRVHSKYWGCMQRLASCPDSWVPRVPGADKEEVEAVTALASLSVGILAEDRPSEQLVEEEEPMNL

[11] = target: HDAC5 (Homo sapiens, UniProt Q9UQL6); settings: MTS inhibitors, HDAC5; cited from earlier work
[12] = target: HDAC9 (Homo sapiens, UniProt Q9UKV0); settings: MTS inhibitors; cited from earlier work
Sequence of HDAC9 (Q9UKV0 whole entry): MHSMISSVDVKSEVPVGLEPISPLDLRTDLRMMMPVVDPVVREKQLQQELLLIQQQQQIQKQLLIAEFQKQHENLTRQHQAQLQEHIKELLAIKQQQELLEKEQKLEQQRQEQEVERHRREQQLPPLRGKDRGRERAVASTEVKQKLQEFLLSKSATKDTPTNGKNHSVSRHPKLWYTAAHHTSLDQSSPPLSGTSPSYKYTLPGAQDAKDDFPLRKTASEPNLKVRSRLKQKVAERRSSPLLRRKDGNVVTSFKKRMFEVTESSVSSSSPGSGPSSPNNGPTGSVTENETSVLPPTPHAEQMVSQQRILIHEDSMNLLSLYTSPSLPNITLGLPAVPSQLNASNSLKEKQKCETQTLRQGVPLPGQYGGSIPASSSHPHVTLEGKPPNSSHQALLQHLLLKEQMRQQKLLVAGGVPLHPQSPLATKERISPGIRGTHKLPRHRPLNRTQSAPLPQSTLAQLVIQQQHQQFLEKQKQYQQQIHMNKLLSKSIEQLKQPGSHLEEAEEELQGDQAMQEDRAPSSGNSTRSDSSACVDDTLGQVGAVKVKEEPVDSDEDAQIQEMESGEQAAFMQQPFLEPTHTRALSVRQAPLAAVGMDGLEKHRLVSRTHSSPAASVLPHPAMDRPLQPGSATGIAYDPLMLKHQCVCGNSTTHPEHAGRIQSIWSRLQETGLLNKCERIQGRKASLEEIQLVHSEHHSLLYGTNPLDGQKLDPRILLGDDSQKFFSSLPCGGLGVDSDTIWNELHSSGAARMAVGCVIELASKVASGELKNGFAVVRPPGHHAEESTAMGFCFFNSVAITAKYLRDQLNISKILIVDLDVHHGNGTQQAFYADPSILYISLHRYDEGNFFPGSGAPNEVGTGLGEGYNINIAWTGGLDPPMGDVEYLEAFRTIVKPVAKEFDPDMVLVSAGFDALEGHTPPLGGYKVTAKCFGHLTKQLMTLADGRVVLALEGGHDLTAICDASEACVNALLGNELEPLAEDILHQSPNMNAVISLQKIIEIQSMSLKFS

Sequence of HDAC4 (P56524 whole entry): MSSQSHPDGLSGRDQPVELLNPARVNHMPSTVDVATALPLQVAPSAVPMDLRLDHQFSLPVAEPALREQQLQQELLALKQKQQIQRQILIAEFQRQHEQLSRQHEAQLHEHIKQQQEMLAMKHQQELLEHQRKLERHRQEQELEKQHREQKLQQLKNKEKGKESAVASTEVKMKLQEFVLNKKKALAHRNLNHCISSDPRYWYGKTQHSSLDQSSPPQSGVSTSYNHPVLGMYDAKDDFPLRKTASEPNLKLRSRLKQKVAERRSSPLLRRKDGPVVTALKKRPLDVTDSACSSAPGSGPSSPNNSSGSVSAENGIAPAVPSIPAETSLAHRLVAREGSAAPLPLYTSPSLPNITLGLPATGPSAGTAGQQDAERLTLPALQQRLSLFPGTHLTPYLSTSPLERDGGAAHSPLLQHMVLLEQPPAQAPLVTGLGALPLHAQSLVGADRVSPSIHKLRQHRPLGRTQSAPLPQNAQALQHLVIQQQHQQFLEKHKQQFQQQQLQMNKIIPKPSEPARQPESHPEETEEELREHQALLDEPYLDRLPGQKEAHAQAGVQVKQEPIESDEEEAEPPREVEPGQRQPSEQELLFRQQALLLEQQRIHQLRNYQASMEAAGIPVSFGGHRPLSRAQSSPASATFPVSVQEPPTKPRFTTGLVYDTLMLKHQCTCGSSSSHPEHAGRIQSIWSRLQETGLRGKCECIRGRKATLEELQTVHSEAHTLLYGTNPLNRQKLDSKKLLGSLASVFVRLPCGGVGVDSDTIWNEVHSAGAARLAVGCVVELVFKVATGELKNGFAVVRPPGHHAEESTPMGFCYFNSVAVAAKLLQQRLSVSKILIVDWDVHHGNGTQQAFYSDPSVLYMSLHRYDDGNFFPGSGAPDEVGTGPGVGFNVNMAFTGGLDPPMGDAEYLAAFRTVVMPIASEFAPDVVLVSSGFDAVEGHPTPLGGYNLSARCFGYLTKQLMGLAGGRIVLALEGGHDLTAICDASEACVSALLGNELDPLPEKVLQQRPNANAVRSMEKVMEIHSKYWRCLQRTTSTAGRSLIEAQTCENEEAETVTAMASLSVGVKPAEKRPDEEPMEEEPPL
Sequence of HDAC5 (Q9UQL6 whole entry): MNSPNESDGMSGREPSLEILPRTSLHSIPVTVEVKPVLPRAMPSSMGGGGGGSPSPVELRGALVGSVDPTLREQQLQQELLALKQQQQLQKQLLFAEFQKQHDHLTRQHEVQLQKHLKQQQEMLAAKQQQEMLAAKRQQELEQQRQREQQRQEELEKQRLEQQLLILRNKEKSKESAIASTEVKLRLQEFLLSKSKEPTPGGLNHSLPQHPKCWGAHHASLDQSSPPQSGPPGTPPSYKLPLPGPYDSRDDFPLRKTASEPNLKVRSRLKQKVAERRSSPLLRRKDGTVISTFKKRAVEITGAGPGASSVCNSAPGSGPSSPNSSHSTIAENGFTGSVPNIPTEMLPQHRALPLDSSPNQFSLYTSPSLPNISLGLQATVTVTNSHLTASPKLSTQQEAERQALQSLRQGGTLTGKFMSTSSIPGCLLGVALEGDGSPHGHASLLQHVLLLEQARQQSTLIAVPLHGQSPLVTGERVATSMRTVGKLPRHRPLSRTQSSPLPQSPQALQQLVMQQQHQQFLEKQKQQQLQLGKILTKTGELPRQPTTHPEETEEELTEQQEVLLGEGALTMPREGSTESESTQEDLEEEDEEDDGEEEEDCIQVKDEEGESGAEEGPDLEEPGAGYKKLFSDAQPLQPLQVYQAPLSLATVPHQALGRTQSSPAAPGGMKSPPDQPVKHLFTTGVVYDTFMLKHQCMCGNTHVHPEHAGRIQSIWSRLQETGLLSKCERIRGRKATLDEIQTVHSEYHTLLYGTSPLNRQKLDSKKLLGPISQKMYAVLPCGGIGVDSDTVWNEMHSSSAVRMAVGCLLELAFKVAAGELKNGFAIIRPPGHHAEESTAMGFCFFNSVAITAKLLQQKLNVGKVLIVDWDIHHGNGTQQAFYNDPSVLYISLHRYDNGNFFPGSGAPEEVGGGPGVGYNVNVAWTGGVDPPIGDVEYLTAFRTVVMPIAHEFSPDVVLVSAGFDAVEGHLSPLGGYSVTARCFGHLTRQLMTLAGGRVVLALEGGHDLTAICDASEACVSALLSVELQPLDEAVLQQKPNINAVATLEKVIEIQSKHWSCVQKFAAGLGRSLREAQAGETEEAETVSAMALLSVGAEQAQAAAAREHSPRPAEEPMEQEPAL

| SMILES | Bioactivity range (ΔpIC50) DpIC50 ([1]; range of pIC50 over the profiled HDAC isoforms) | Experimental pIC50 [2] | IC50 [2] | Experimental activity (pKi), Exp [3] | Experimental activity (pKi), Exp [4] | Experimental activity (pKi), Exp [5] | Experimental activity (pKi), Exp [6] | Experimental activity (pKi), Exp [7] | Experimental activity (pKi), Exp [8] | average pIC50 value, Exp. ([1]; average over HDAC isoforms, MTS) | Exp. pIC50 [9] | Exp. pIC50 [10] | Exp. pIC50 [11] | Exp. pIC50 [12] |
| --- | --- | --- | --- | --- | --- | --- | --- | --- | --- | --- | --- | --- | --- | --- |
| CC(/C=C/C(=O)NO)=C\[C@H](C)C(=O)c1ccc(N(C)C)cc1 (stereo in doubt) [TSA, 7-(4-(Dimethylamino)phenyl)-N-hydroxy-4,6-dimethyl-7-oxo-2,4-heptadienamide] | 2.34 | 6.40 | 400 nM | – | – | – | – | – | – | – | – | – | – | – |
| C/C=C/N(C)c1nc([C@@H](C)c2c(F)cccc2F)c(C)c(=O)[nH]1 [(S)-MC1501] | – | – | – | 4.40 | 6.45 | 6.93 | 6.01 | 4.40 | 4.40 | – | – | – | – | – |
| Cc1c(N)nc(Nc2ccc(C#N)cc2)nc1[C@@H](C)c1c(F)cccc1F [(S)-MC2082] | – | – | – | 6.74 | 6.62 | 4.52 | 7.19 | 4.40 | 6.29 | – | – | – | – | – |
| O=C(O)CCCc1ccccc1 [MCL-3] | – | – | – | – | – | – | – | – | – | 3.40 | 2.70 | 2.70 | 2.70 | 2.70 |
